According to patent US11497212B2, “Substituted thiophenyl uracils, salts thereof and the use thereof as herbicidal agents” (Syngenta Crop Protection AG, priority 2017, dated 2022):

Legend:
Assay type in all cases: in vivo
Matricaria inodora [1] = assay: Herbicidal action post-emergence (greenhouse pot trial); details: scored visually after about 3 weeks vs untreated controls
How it was run: (§1)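 Weed seeds sown in sandy loam were grown in a greenhouse for 2–3 weeks and treated at the one-leaf stage. WP or EC formulations, with 0.5% additive, were sprayed on green parts at a water rate of 600 L/ha and at 80 g/ha or lower. Efficacy was scored visually about 3 weeks later against untreated controls.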

Veronica persica [2] = assay: as above
How it was run: as §1

Stellaria media [3] = assay: as above; details: scored visually after about 3 weeks vs untreated controls
How it was run: as §1

Polygonum convolvulus = assay: as above; details: scored visually after about 3 weeks vs untreated controls
How it was run: as §1

Viola tricolor [4] = assay: as above
How it was run: as §1

Setaria viridis [5] = assay: as above; details: scored visually after about 3 weeks vs untreated controls
How it was run: as §1

Pharbitis purpurea [6] = assay: as above
How it was run: as §1

Abutilon theophrasti [7] = assay: as above; details: scored visually after about 3 weeks vs untreated controls
How it was run: as §1

Amaranthus retroflexus [8] = assay: as above; details: scored visually after about 3 weeks vs untreated controls
How it was run: as §1

Oryza sativa = assay: Crop compatibility post-emergence (greenhouse pot trial); details: application rate 20 g/ha
How it was run: (§2)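 Crops grown in sandy loam in greenhouse, sprayed at one-leaf stage (2–3 weeks after sowing) with WP or EC formulations in water plus 0.5% additive, 600 L/ha. Damage scored visually after about 3 weeks versus untreated controls, 0% = like control, 100% = dead.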

Triticum aestivum = assay: as above
How it was run: as §2

Zea mays [9] = assay: as above
How it was run: as §2

Zea mays [10] = assay: Crop compatibility pre-emergence (greenhouse pot trial); details: application rate 20 g/ha, effect vs untreated controls
Source text: (§3) Seeds of mono- and dicotyledonous weeds and crop plants were laid out in plastic or organic plant pots and covered with soil. The compounds of the invention formulated in the form of wettable powders (WP) or emulsion concentrates (EC) were then applied to the surface of the covering soil as an aqueous suspension or emulsion with addition of 0.5% additive at a water application rate equivalent to 600 L/ha. After the treatment, the pots were placed in a greenhouse and kept under good growth conditions for the test plants. After about 3 weeks, the efficacy of the preparations was scored visually as a percentage by comparison with untreated controls. For example, 100% efficacy=plants have died, 0% efficacy=like control plants.
Crop compatibilities were also scored correspondingly.
The effects observed are reported here on selected crop plants by comparison with the untreated controls (values in %).

Echinochloa crus-galli [11] = assay: Herbicidal action pre-emergence (greenhouse pot trial); details: application rate 320 g/ha, scored after about 3 weeks
Source text: as §3, with “control plants. Tables B1 to B16 below show the efficacies of selected compounds of the general formula (I) according to tables I.1 to I.60 on various harmful plants and an application rate corresponding to 320 g/ha or lower that were obtained by the aforementioned trial method.” for “control plants.”

Matricaria inodora [12] = assay: as above; details: application rate 320 g/ha, scored after about 3 weeks
Source text: as §3, with “control plants. Tables B1 to B16 below show the efficacies of selected compounds of the general formula (I) according to tables I.1 to I.60 on various harmful plants and an application rate corresponding to 320 g/ha or lower that were obtained by the aforementioned trial method.” for “control plants.”

Veronica persica [13] = assay: as above; details: application rate 320 g/ha
Source text: as §3, with “control plants. Tables B1 to B16 below show the efficacies of selected compounds of the general formula (I) according to tables I.1 to I.60 on various harmful plants and an application rate corresponding to 320 g/ha or lower that were obtained by the aforementioned trial method.” for “control plants.”

Stellaria media [14] = assay: as above; details: application rate 320 g/ha, scored after about 3 weeks
Source text: as §3, with “control plants. Tables B1 to B16 below show the efficacies of selected compounds of the general formula (I) according to tables I.1 to I.60 on various harmful plants and an application rate corresponding to 320 g/ha or lower that were obtained by the aforementioned trial method.” for “control plants.”

Viola tricolor [15] = assay: as above; details: application rate 320 g/ha, scored after about 3 weeks
Source text: as §3, with “control plants. Tables B1 to B16 below show the efficacies of selected compounds of the general formula (I) according to tables I.1 to I.60 on various harmful plants and an application rate corresponding to 320 g/ha or lower that were obtained by the aforementioned trial method.” for “control plants.”

Setaria viridis [16] = assay: as above; details: application rate 320 g/ha, scored after about 3 weeks
Source text: as §3, with “control plants. Tables B1 to B16 below show the efficacies of selected compounds of the general formula (I) according to tables I.1 to I.60 on various harmful plants and an application rate corresponding to 320 g/ha or lower that were obtained by the aforementioned trial method.” for “control plants.”

Lolium rigidum [17] = assay: as above; details: application rate 320 g/ha
Source text: as §3, with “control plants. Tables B1 to B16 below show the efficacies of selected compounds of the general formula (I) according to tables I.1 to I.60 on various harmful plants and an application rate corresponding to 320 g/ha or lower that were obtained by the aforementioned trial method.” for “control plants.”

Pharbitis purpurea [18] = assay: as above; details: application rate 320 g/ha
Source text: as §3, with “control plants. Tables B1 to B16 below show the efficacies of selected compounds of the general formula (I) according to tables I.1 to I.60 on various harmful plants and an application rate corresponding to 320 g/ha or lower that were obtained by the aforementioned trial method.” for “control plants.”

Hordeum murinum = assay: as above; details: application rate 320 g/ha
Source text: as §3, with “control plants. Tables B1 to B16 below show the efficacies of selected compounds of the general formula (I) according to tables I.1 to I.60 on various harmful plants and an application rate corresponding to 320 g/ha or lower that were obtained by the aforementioned trial method.” for “control plants.”

Abutilon theophrasti [19] = assay: as above; details: application rate 320 g/ha, scored after about 3 weeks
Source text: as §3, with “control plants. Tables B1 to B16 below show the efficacies of selected compounds of the general formula (I) according to tables I.1 to I.60 on various harmful plants and an application rate corresponding to 320 g/ha or lower that were obtained by the aforementioned trial method.” for “control plants.”

Avena fatua = assay: as above; details: application rate 320 g/ha
Source text: as §3, with “control plants. Tables B1 to B16 below show the efficacies of selected compounds of the general formula (I) according to tables I.1 to I.60 on various harmful plants and an application rate corresponding to 320 g/ha or lower that were obtained by the aforementioned trial method.” for “control plants.”

Amaranthus retroflexus [20] = assay: as above; details: application rate 320 g/ha, scored after about 3 weeks
Source text: as §3, with “control plants. Tables B1 to B16 below show the efficacies of selected compounds of the general formula (I) according to tables I.1 to I.60 on various harmful plants and an application rate corresponding to 320 g/ha or lower that were obtained by the aforementioned trial method.” for “control plants.”

Alopecurus myosuroides [21] = assay: as above; details: application rate 320 g/ha, scored after about 3 weeks
Source text: as §3, with “control plants. Tables B1 to B16 below show the efficacies of selected compounds of the general formula (I) according to tables I.1 to I.60 on various harmful plants and an application rate corresponding to 320 g/ha or lower that were obtained by the aforementioned trial method.” for “control plants.”

Echinochloa crus-galli [22] = assay: Herbicidal action post-emergence (greenhouse pot trial); details: application rate 20 g/ha, scored visually after about 3 weeks vs untreated controls
How it was run: as §1

Digitaria sanguinalis = assay: as above; details: application rate 20 g/ha
How it was run: as §1

Lolium rigidum [23] = assay: as above; details: application rate 20 g/ha, scored visually after about 3 weeks vs untreated controls
How it was run: as §1

Alopecurus myosuroides [24] = assay: as above; details: application rate 20 g/ha, scored visually after about 3 weeks vs untreated controls
How it was run: as §1

Glycine max = assay: Crop compatibility post-emergence (greenhouse pot trial); details: application rate 20 g/ha
How it was run: as §2

C=CCN(C(=O)C(C)Sc1cc(-n2c(=O)cc(C(F)(F)F)n(C)c2=O)c(F)cc1Cl)C(C)COC (stereo not drawn) [I.1-335]
Matricaria inodora (Efficacy in %) (Matricaria inodora [1]; application rate 80 g/ha): 100% | Veronica persica (Efficacy in %) (Veronica persica [2]; application rate 80 g/ha): 100% | Stellaria media (Efficacy in %) (Stellaria media [3]; application rate 80 g/ha): 100% | Polygonum convolvulus (Efficacy in %) (Polygonum convolvulus; application rate 80 g/ha): 100% | Viola tricolor (Efficacy in %) (Viola tricolor [4]; application rate 80 g/ha): 100% | Setaria viridis (Efficacy in %) (Setaria viridis [5]; application rate 80 g/ha): 100% | Pharbitis purpurea (Efficacy in %) (Pharbitis purpurea [6]; application rate 80 g/ha): 100% | Abutilon theophrasti (Efficacy in %) (Abutilon theophrasti [7]; application rate 80 g/ha): 100% | Amaranthus retroflexus (Efficacy in %) (Amaranthus retroflexus [8]; application rate 80 g/ha): 100% | Oryza sativa (Efficacy in %) (Oryza sativa): 10% | Triticum aestivum (Efficacy in %) (Triticum aestivum; application rate 80 g/ha): 20% | Zea mays (Efficacy in %) (Zea mays [9]; application rate 80 g/ha): 10% | Zea mays (Efficacy in %) (Zea mays [10]): 20% | Echinochloa crus-galli (Efficacy in %) (Echinochloa crus-galli [11]): 100% | Matricaria inodora (Efficacy in %) (Matricaria inodora [12]): 100% | Veronica persica (Efficacy in %) (Veronica persica [13]): 100% | Stellaria media (Efficacy in %) (Stellaria media [14]): 100% | Viola tricolor (Efficacy in %) (Viola tricolor [15]): 100% | Setaria viridis (Efficacy in %) (Setaria viridis [16]): 100% | Lolium rigidum (Efficacy in %) (Lolium rigidum [17]): 100% | Pharbitis purpurea (Efficacy in %) (Pharbitis purpurea [18]): 100% | Hordeum murinum (Efficacy in %) (Hordeum murinum): 90% | Abutilon theophrasti (Efficacy in %) (Abutilon theophrasti [19]): 100% | Avena fatua (Efficacy in %) (Avena fatua): 100% | Amaranthus retroflexus (Efficacy in %) (Amaranthus retroflexus [20]): 100% | Alopecurus myosuroides (Efficacy in %) (Alopecurus myosuroides [21]): 90%

CC(C)C(Sc1cc(-n2c(=O)cc(C(F)(F)F)n(C)c2=O)c(F)cc1Cl)C(=O)NCC1CCCO1 (stereo not drawn) [I.6-221, 2-({2-Chloro-4-fluoro-5-[3-methyl-2,6-dioxo-4-(trifluoromethyl)-3,6-dihydropyrimidin-1(2H)-yl]phenyl}sulfanyl)-3-methyl-N-(tetrahydrofuran-2-ylmethyl)butanamide]
Echinochloa crus-galli (Efficacy in %) (Echinochloa crus-galli [22]): 80% | Digitaria sanguinalis (Efficacy in %) (Digitaria sanguinalis): 100% | Matricaria inodora (Efficacy in %) (Matricaria inodora [1]; application rate 20 g/ha): 100% | Veronica persica (Efficacy in %) (Veronica persica [2]; application rate 20 g/ha): 100% | Stellaria media (Efficacy in %) (Stellaria media [3]; application rate 20 g/ha): 80% | Polygonum convolvulus (Efficacy in %) (Polygonum convolvulus; application rate 20 g/ha): 100% | Viola tricolor (Efficacy in %) (Viola tricolor [4]; application rate 20 g/ha): 100% | Setaria viridis (Efficacy in %) (Setaria viridis [5]; application rate 20 g/ha): 100% | Lolium rigidum (Efficacy in %) (Lolium rigidum [23]): 80% | Pharbitis purpurea (Efficacy in %) (Pharbitis purpurea [6]; application rate 20 g/ha): 100% | Abutilon theophrasti (Efficacy in %) (Abutilon theophrasti [7]; application rate 20 g/ha): 100% | Amaranthus retroflexus (Efficacy in %) (Amaranthus retroflexus [8]; application rate 20 g/ha): 100% | Alopecurus myosuroides (Efficacy in %) (Alopecurus myosuroides [24]): 90%

Cc1c(C(F)(F)F)n(C)c(=O)n(-c2cc(SC(CC(C)C)C(=O)OCC3CCCCO3)c(Cl)cc2F)c1=O (stereo not drawn) [I.14-91]
Veronica persica (Efficacy in %) (Veronica persica [2]; application rate 20 g/ha): 100% | Viola tricolor (Efficacy in %) (Viola tricolor [4]; application rate 20 g/ha): 100% | Pharbitis purpurea (Efficacy in %) (Pharbitis purpurea [6]; application rate 20 g/ha): 80% | Abutilon theophrasti (Efficacy in %) (Abutilon theophrasti [7]; application rate 20 g/ha): 100% | Amaranthus retroflexus (Efficacy in %) (Amaranthus retroflexus [8]; application rate 20 g/ha): 100% | Glycine max (Efficacy in %) (Glycine max): 20% | Oryza sativa (Efficacy in %) (Oryza sativa): 0% | Triticum aestivum (Efficacy in %) (Triticum aestivum; application rate 20 g/ha): 20% | Zea mays (Efficacy in %) (Zea mays [9]; application rate 20 g/ha): 20%
